From patent US12173018B2, “Penicillin-binding protein inhibitors” (priority 2018, dated 2024)
In brackets after ≈: the same amount, converted by molar mass. Where two headings read alike, the source gives them in different places.

Tests used:
E. coli ATCC 25922 = assay: Broth microdilution MIC, E. coli ATCC 25922; assay type: cell-based; details: Escherichia coli, ATCC25922; E. coli ATCC 25922, broth microdilution; read-out: MIC E. coli 25922
In short: (§1)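 Colonies from Mueller Hinton II agar were grown 3-5 hours at 37° C in cation-supplemented broth, adjusted by OD600, then added to 2-fold compound dilutions at 5×10^5 CFU/mL. After 16-20 hours at 37° C, MICs were scored visually.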

[1] = test system: N. gonorrhoeae ATCC 49226; assay: Liquid broth MIC, N. gonorrhoeae ATCC 49226; assay type: cell-based; details: Neisseria gonorrhoeae, ATCC49226; N. gonorrhoeae ATCC 49226, liquid broth; read-out: Minimum Inhibitory Concentration, N. gonorrhoeae ATCC 49226
Description: (§2) Additional antibacterial testing of the series was performed in wild-type reference strains of N. gonorrhoeae (ATCC 49226, FA1090, WHO F and FA19). Liquid broth-based assays were used for antibacterial testing of PBP inhibitors in Neisseria gonorrhoeae. Briefly, cryo-preserved bacterial cultures of clinical strains are streaked for isolation on GC Base agar (BD #228950 at 36 g/L autoclaved at 121° C. for 20 minutes to sterilize) with 1% Kellogg's supplement (40 g glucose, 0.5 g glutamine, 0.05 g ferric nitrate and 2 mg cocarboxylase per 100 mL deionized water filter sterilized through 0.2 μm syringe filters). Following incubation at 36° C. and 5% CO2 to allow growth of colonies, strains are aseptically sub-cultured from original agar plate onto 3 agar plates per strain 24 hours before inoculum preparation. 2-fold serial dilutions of test compounds are conducted in a 96 well plate with a final volume of 150 μL per well at 4/3-fold the final desired concentration. For preparation of assay inoculum, a direct suspension is prepared by aseptically swabbing all colonies from sub-cultured agar plates into culture tubes containing 2 mL of fresh GC broth with […]. After the dilution plates are set up, direct suspensions are then diluted in a cuvette containing GC broth (15 g proteose peptone 43, 1 g corn starch, 4 g dipotassium phosphate, 1 g monopotassium phosphate and 5 g sodium chloride per liter of deionized water are mixed on a stir plate for 20 minutes, pH adjusted to 7.2+/−0.2 pH units with 1 N HCl, centrifuged at 10,000×g for 20 minutes to pellet undissolved corn starch and then autoclaved at 121° C. for 20 minutes to sterilize) and the optical density is measured at 600 nm. Inocula are diluted such that 50 μL of this culture in […] results in a starting bacterial concentration of 5×10^5 CFU/mL when added to the dilution plates. The plates are incubated 40-42 hours at 36° C. and 5% CO2. The MIC is read visually as the lowest concentration well with no bacterial growth.

N. gonorrhoeae FA19 = assay: Liquid broth MIC, N. gonorrhoeae FA19; assay type: cell-based; details: Neisseria gonorrhoeae; N. gonorrhoeae FA19, liquid broth; read-out: Minimum Inhibitory Concentration, N. gonorrhoeae FA19
Description: as §2

N. gonorrhoeae FA1090 = assay: Liquid broth MIC, N. gonorrhoeae FA1090; assay type: cell-based; details: Neisseria gonorrhoeae; N. gonorrhoeae FA1090, liquid broth; read-out: Minimum Inhibitory Concentration, N. gonorrhoeae FA1090
Description: as §2

E. coli PBP3 = E. coli PBP3 (Escherichia coli (strain K12), UniProt P0AD68); assay: E. coli PBP3 Bocillin-FL fluorescence polarization competition binding assay
Chain of E. coli PBP3 (P0AD68 whole entry): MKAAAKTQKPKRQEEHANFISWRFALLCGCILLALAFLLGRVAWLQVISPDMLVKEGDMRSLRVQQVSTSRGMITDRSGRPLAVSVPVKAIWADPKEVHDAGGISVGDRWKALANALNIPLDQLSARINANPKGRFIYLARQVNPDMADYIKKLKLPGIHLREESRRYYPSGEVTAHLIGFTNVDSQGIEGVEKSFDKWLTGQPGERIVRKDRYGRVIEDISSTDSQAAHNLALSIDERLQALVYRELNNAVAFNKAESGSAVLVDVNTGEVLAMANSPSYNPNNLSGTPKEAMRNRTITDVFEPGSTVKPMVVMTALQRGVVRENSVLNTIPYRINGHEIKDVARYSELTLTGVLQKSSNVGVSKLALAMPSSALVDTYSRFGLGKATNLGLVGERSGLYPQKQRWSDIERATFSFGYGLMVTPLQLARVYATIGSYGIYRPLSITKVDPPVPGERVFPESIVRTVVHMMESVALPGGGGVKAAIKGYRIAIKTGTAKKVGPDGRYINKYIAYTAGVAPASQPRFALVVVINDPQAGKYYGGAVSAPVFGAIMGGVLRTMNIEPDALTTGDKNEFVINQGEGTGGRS
In short: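 FP competition: 1.5 μM PBP, 0.1 μM Bocillin-FL, cpd 0–1000 μM; 50 mM Hepes pH 8.0/300 mM NaCl/5% glycerol. Read 490/520 nm immediately after Bocillin-FL addition, 60 min. EC50 = cpd conc. lowering probe binding.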

N. gonorrhoeae WHO F = assay: Liquid broth MIC, N. gonorrhoeae WHO F; assay type: cell-based; details: Neisseria gonorrhoeae; N. gonorrhoeae WHO F, liquid broth; read-out: Minimum Inhibitory Concentration, N. gonorrhoeae WHO F
Description: as §2

K. pneumoniae 848844 = assay: microbe, parasite or virus in culture; assay type: cell-based, Klebsiella pneumoniae; details: Klebsiella pneumoniae; K. pneumoniae 848844 producing SHV-11 and KPC-2; read-out: MIC K. pneumoniae 848844
In short: as §1

E. coli AG100 = assay: Broth microdilution MIC, E. coli AG100 (wild-type parent); assay type: cell-based; details: Escherichia coli; wild-type parent E. coli AG100, broth microdilution; read-out: MIC E. coli AG100
In short: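 Broth microdilution in cation-supplemented Mueller-Hinton broth, 2-fold serial compound dilutions, inoculum 5×10^5 CFU/mL from 3-5 h log culture.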

K. pneumoniae SI-117 = assay: microbe, parasite or virus in culture; assay type: cell-based; details: Klebsiella pneumoniae, SI117, read-out: MIC K. pneumoniae SI-117
In short: as §1

E. coli D22 = assay: microbe, parasite or virus in culture; assay type: cell-based; details: Escherichia coli; hyper-permeable E. coli D22, broth microdilution; read-out: MIC E. coli D22
In short: as §1

E. coli 901C = assay: microbe, parasite or virus in culture; assay type: cell-based; details: Escherichia coli; hyper-permeable E. coli 901C, broth microdilution; read-out: MIC E. coli 901C
In short: as §1

E. coli AG100A = assay: microbe, parasite or virus in culture; assay type: cell-based; details: Escherichia coli, read-out: MIC E. coli AG100A
In short: as §1

K. pneumoniae UMM = assay: microbe, parasite or virus in culture; assay type: cell-based; details: Klebsiella pneumoniae; K. pneumoniae UMM producing SHV-5 and KPC-2; read-out: MIC K. pneumoniae UMM
In short: as §1

Row | SMILES | MIC (E. coli ATCC 25922) [µg/mL] | MIC [1] [µg/mL] | MIC (N. gonorrhoeae FA19) [µg/mL] | MIC (N. gonorrhoeae FA1090) [µg/mL] | EC50 (E. coli PBP3) [µM] | MIC (N. gonorrhoeae WHO F) [µg/mL] | MIC (K. pneumoniae 848844) [µg/mL] | MIC (E. coli AG100) [µg/mL] | MIC (K. pneumoniae SI-117) [µg/mL] | MIC (E. coli D22) [µg/mL] | MIC (E. coli 901C) [µg/mL] | MIC (E. coli AG100A) [µg/mL] | MIC (K. pneumoniae UMM) [µg/mL] | EC50 (E. coli PBP3; fluorescence polarization competition binding with Bocillin-FL, read-out: E. coli K12 PBP3 Potency) [µM]
1 | NC(=O)c1ccc(C(NC(=O)N2CCN(CCF)C(=O)C2=O)C(=O)N[C@H]2Cc3cccc(C(=O)O)c3OB2O)cc1 (stereo partly drawn) [Example 187, (3R)-3-(2-(4-carbamoylphenyl)-2-(4-(2-fluoroethyl)-2,3-dioxopiperazine-1-carboxamido)acetamido)-2-hydroxy-3,4-dihydro-2H-benzo[e][1,2]oxaborinine-8-carboxylic acid] | 32 to 64 | 0.25 to 0.5 (≈ 0.439 to 0.878 µM) | 0.25 to 0.5 (≈ 0.439 to 0.878 µM) | < 0.125 | 30 to 500 | < 0.125 | > 128 | 8 to 16 | > 128 | 0.5 to 1 | < 0.25 | 2 to 4 | 32 to 64 | –
2 | CCN1C[C@H](C)N(C(=O)NC(C(=O)N[C@H]2Cc3cccc(C(=O)O)c3OB2O)c2ncc(O)cc2F)C(=O)C1=O (stereo partly drawn) [Example 192, (3R)-3-(2-((S)-4-ethyl-6-methyl-2,3-dioxopiperazine-1-carboxamido)-2-(3-fluoro-5-hydroxypyridin-2-yl)acetamido)-2-hydroxy-3,4-dihydro-2H-benzo[e][1,2]oxaborinine-8-carboxylic acid] | 2 to 4 | 1 to 2 (≈ 1.79 to 3.59 µM) | 1 to 2 (≈ 1.79 to 3.59 µM) | < 0.125 | – | < 0.125 | 32 to 64 | 8 to 16 | 32 to 64 | 0.5 to 1 | < 0.25 | 0.5 to 1 | 8 to 16 | < 30
3 | CCN1CCN(C(=O)NC(C(=O)N[C@H]2Cc3cccc(C(=O)O)c3OB2O)c2ncc(O)cn2)C(=O)C1=O (stereo partly drawn) [Example 202, (3R)-3-(2-(4-ethyl-2,3-dioxopiperazine-1-carboxamido)-2-(5-hydroxypyrimidin-2-yl)acetamido)-2-hydroxy-3,4-dihydro-2H-benzo[e][1,2]oxaborinine-8-carboxylic acid] | 32 to 64 | 4 to 8 (≈ 7.6 to 15.2 µM) | 4 to 8 (≈ 7.6 to 15.2 µM) | 0.25 to 0.5 (≈ 0.475 to 0.95 µM) | 30 to 500 | 0.25 to 0.5 (≈ 0.475 to 0.95 µM) | > 128 | 32 to 64 | 32 to 64 | 8 to 16 | 0.5 to 1 | 2 to 4 | 32 to 64 | –
4 | NS(=O)(=O)c1ccc(C(NC(=O)N2CCN(CCF)C(=O)C2=O)C(=O)N[C@H]2Cc3cccc(C(=O)O)c3OB2O)cc1F (stereo partly drawn) [Example 211, (3R)-3-(2-(3-fluoro-4-sulfamoylphenyl)-2-(4-(2-fluoroethyl)-2,3-dioxopiperazine-1-carboxamido)acetamido)-2-hydroxy-3,4-dihydro-2H-benzo[e][1,2]oxaborinine-8-carboxylic acid] | 32 to 64 | 4 to 8 (≈ 6.42 to 12.8 µM) | 4 to 8 (≈ 6.42 to 12.8 µM) | 0.25 to 0.5 (≈ 0.401 to 0.802 µM) | 30 to 500 | 0.25 to 0.5 (≈ 0.401 to 0.802 µM) | > 128 | 32 to 64 | > 128 | 2 to 4 | < 0.25 | 2 to 4 | 32 to 64 | –
5 | CCN1CCN(C(=O)NC(C(=O)N[C@H]2Cc3cccc(C(=O)O)c3OB2O)c2ncc(N)cc2F)C(=O)C1=O (stereo partly drawn) [Example 214, (3R)-3-(2-(5-amino-3-fluoropyridin-2-yl)-2-(4-ethyl-2,3-dioxopiperazine-1-carboxamido)acetamido)-2-hydroxy-3,4-dihydro-2H-benzo[e][1,2]oxaborinine-8-carboxylic acid] | 8 to 16 | 4 to 8 (≈ 7.38 to 14.8 µM) | 4 to 8 (≈ 7.38 to 14.8 µM) | < 0.125 | 30 to 500 | < 0.125 | 32 to 64 | 32 to 64 | 32 to 64 | 2 to 4 | 0.5 to 1 | 2 to 4 | 32 to 64 | –
6 | O=C(O)c1cccc2c1OB(O)[C@@H](NC(=O)C(NC(=O)N1C[C@@H]3CCCN3C(=O)C1=O)c1ncc(O)cc1F)C2 (stereo partly drawn) [Example 223, (3R)-3-(2-((S)-3,4-dioxooctahydropyrrolo[1,2-a]pyrazine-2-carboxamido)-2-(3-fluoro-5-hydroxypyridin-2-yl)acetamido)-2-hydroxy-3,4-dihydro-2H-benzo[e][1,2]oxaborinine-8-carboxylic acid] | > 128 | > 64 | > 64 | 1 to 2 (≈ 1.8 to 3.6 µM) | 30 to 500 | 1 to 2 (≈ 1.8 to 3.6 µM) | > 128 | > 128 | > 128 | 32 to 64 | 8 to 16 | 32 to 64 | > 128 | –
